Source: patent US20090055945A1, “Method for Producing Nuclear-Transplanted Egg” (priority 2005, published 2009)

Key:
[1] = tested on: oocytes into which nuclei from ES cells (E14) were transferred; experiment: Expanded blastocyst formation, ES cells as donor cells; assay type: cell-based, mouse; conditions: ES cell donor nuclei; 50 nM TSA for 20 hours; FIG. 8
Method: A procedure similar to that described in Example 1 was carried out using fibroblasts or embryonic stem cells (ES cells) as donor cells in place of cumulus cells. Fibroblasts were obtained by culturing a fragment of mouse tail (Non-patent Document 11). E14 cells were used as ES cells (Non-patent Document 12).
Oocytes into which nuclei from the donor cells were transferred were treated with TSA for 20 hours, and cultured in KSOM medium without TSA until 96 hours after the initiation of activation. Then, development into expanded blastocysts was observed and the blastocyst formation rate was determined. 30 or more embryos were examined in each of the experimental groups of the respective cells.

[2] = tested on: oocytes injected with mature sperm (ICSI); experiment: Paternal genome DNA methylation, mature sperm injection (ICSI); assay type: cell-based, mouse; conditions: 500 nM TSA, 20 hours
Method: The oocytes injected with the nuclear domains of round spermatids obtained by ROSI were cultured for 20 hours in the presence of 20 ng/ml of demecolcine in a medium containing 10 μM 5-azacytidine (5-aza) or 500 nM TSA as an anti-methylation agent. Similarly, injection of mature sperms was carried out (ICSI (intracytoplasmic sperm injection)). Specifically, heads of sperms were separated from the tails by applying pulses to the head-tail junctions by means of a piezo-driven pipette (PrimeTech), and injected into oocytes. The oocytes were not subjected to activation in this case. […]
For quantitative analysis of pronuclear DNA methylation levels, fluorescence images were subjected to densitometric analysis using the program Image-J from the National Institute of Health (http://rsb.info.nih.gov/ij/). For each pronucleus, the relative intensity of methylation of the paternal genome was calculated as a percentage of the fluorescence intensity of the maternal genome. In Table 3, data with (b) and without (a) anti-methylation agent were statistically analyzed by Scheffe tests for multiple mean comparisons using the statistical program SPSS version 12.0 (SPSS Inc.). […]

[3] = tested on: bovine reconstructed embryos; experiment: Early embryonic development of bovine reconstructed embryos; assay type: cell-based; conditions: for Number of cleaved embryos / Cleavage rate (cleaved embryos to cultured embryos): 48 hours postactivation; for Number of embryos at the blastocyst stage: 168 hours postactivation
Method: Bovine ovaries collected from sacrificed cows at a local slaughterhouse were stored in physiological saline at 25° C. and transported to the laboratory within 6 to 8 hours after slaughter. Bovine oocytes were harvested by aspiration of follicular fluids from follicles with diameters of 2 to 5 mm on the surfaces of bovine ovaries using 21G injection needles (Terumo, Tokyo, Japan) and 10-ml syringes (Terumo). Only oocyte-cumulus cell complexes to which 2 to 4 layers of cumulus cells were attached were selected and collected from the harvested follicular fluids. The collected oocyte-cumulus cell complexes were introduced into drops of 50 μl maturation medium under mineral oil (Sigma, USA) and cultured for 21 hours at 39° C. under 5% CO2 and 95% air at saturation humidity. The maturation medium was prepared by adding 0.02 AU/ml of follicle-stimulating hormone (FSH, Antrin, Kawasaki Seiyaku, Kanagawa, Japan) and 1 μg/ml estradiol 17-β (Sigma) to 25 mM HEPES buffered TCM-199 (Earle's salts, Gibco, m-TCM199E) supplemented with 5% (v/v) new born calf serum (NBCS, Gibco, N.Y., USA) and 25 μg/ml of gentamicin solution (Sigma).
The oocyte-cumulus cell complexes matured for 21 hours were allowed to stand for 5 minutes in a solution containing 5% NBCS and 25 μg/ml gentamicin solution (Sigma) in 25 mM HEPES-buffered TCM-199 (Hank's salts, Gibco, m-TCM199H) containing 0.25% (w/v) hyaluronidase (Sigma). Then, the cumulus cells attached around the oocytes were fully removed by pipetting.
The oocytes from which the cumulus cells had been removed were transferred to m-TCM119H and only oocytes with the first polar bodies had been emitted were selected under an inverted microscope. Zonae pellucidae above each first polar bodies were incised using a fine glass needle for removing nuclei from the oocytes, and the oocytes were transferred to m-TCM119H supplemented with 5 μg/ml cytochalacin B (Sigma) and allowed to stand for 15 minutes. Each oocyte was held from the upside using the glass needle used for incising zona pellucida, and enucleation was carried out by removing the first polar body and the oocyte cytoplasm neighboring the first polar body corresponding to about 10 to 20% of the oocyte cytoplasm volume from the zona pellucida incision site. The removed oocyte cytoplasm was transferred to m-TCM199E containing 20 μg/ml of Hoechst 33342 (Sigma) and stained at 39° C. under 5% CO2 and 95% air at saturated humidity for 30 minutes, and the enucleation was confirmed by judging the presence of nucleus in the enucleated oocyte cytoplasm under UV irradiation.
Fibroblasts derived from an auricle of Japanese black cattle calves were used as donor cells for nuclear transfer. The donor cells were cultured to 80% confluency in Dulbecco's modified Eagle medium (DMEM, Nissui, Tokyo, Japan) supplemented with 10% (v/v) fetal bovine serum (FBS, Funakoshi, Tokyo, Japan). The culture medium was then exchanged for DMEM supplemented with 0.4% FBS, and the cells were cultured under serum-starvation conditions for 7 days. The cells cultured under serum-starvation conditions were isolated from the culture dishes using a 0.25% (w/v) solution of trypsin (Sigma) containing 0.04% (w/v) disodium dihydrogen ethylenediaminetetraacetic acid (EDTA, Nacalai Tesque, Kyoto, Japan). The cells were harvested by centrifugation in a centrifuge tube, and suspended in a phosphate buffered saline (PBS, Gibco) (−) solution containing 10% (w/v) polyvinylpyrrolidone (PVP, Nacalai Tesque). The isolated cells were aspirated into a micro-glass pipette for cell introduction, and introduced from the zona pellucida incision sites into the perivitelline spaces of the recipient enucleated oocytes. […]

[4] = TSA in the culture medium, 5-500 nM

CC(/C=C/C(=O)NO)=C\[C@@H](C)C(=O)c1ccc(N(C)C)cc1 [TSA, trichostatin A]
blastocyst development rate compared with the case without TSA [1]: higher | Ratio of methylation level of paternal genome to maternal genome (%) [2]: 8.2^b % | Cell number ± SEM of blastocysts ([3]; TSA 5 nM for 48 hours): 89 ± 6 | Number of cleaved embryos ([3]; TSA 5 nM for 48 hours, 106 cultured embryos): 85 | Cleavage rate (cleaved embryos to cultured embryos) ([3]; TSA 5 nM for 48 hours): 80% | Number of embryos at the blastocyst stage ([3]; TSA 5 nM for 48 hours): 28 | Cell number ± SEM of blastocysts ([3]; TSA 50 nM for 48 hours): 83 ± 6 | Number of cleaved embryos ([3]; TSA 50 nM for 48 hours, 97 cultured embryos): 73 | Cleavage rate (cleaved embryos to cultured embryos) ([3]; TSA 50 nM for 48 hours): 75% | Number of embryos at the blastocyst stage ([3]; TSA 50 nM for 48 hours): 29 | Cell number ± SEM of blastocysts ([3]; TSA 500 nM for 48 hours): 92 ± 8 | Number of cleaved embryos ([3]; TSA 500 nM for 48 hours, 97 cultured embryos): 73 | Cleavage rate (cleaved embryos to cultured embryos) ([3]; TSA 500 nM for 48 hours): 75% | Number of embryos at the blastocyst stage ([3]; TSA 500 nM for 48 hours): 5 | increase in blastocyst development rate ([3]; TSA at a certain concentration for a certain period of time): about 2 fold | influence on cell number of blastocysts [3, 4]: did not influence | influence on cleavage rate [3, 4]: did not influence
